Data on 26 compounds can be found in paper PMC9616048, “Thermal proteome profiling reveals Haemonchus orphan protein HCO_011565 as a target of the nematocidal small molecule UMW-868” (Frontiers in Pharmacology, 2022).

SMILES strings stand for the structures.

Experiment [1] has as its system exsheathed third-stage larvae (xL3s) of H. contortus. Briefly: High throughput screen, xL3 motility (infrared light beam-interference). The experiment is classed as cell-based. As to conditions: Haemonchus contortus, 90 h, read-out: Motility reduction at 90 h (%). The protocol:
An established platform was used for compound screening ([Taki et al., 2021a]). Using a semi-automated liquid handling robot (VIAFLO ASSIST PLUS, Integra Biosciences), compounds were individually diluted to […] in LB* containing 0.2% (v/v) DMSO and then dispensed in 20 µl into the wells of sterile 384-well flat bottom microtitre plates (cat. no. 3680; Corning); 320 compounds were arrayed on each plate, with 16 wells being negative controls (with LB* + 0.2% DMSO) and four wells containing each monepantel (Zolvix; Elanco), moxidectin (Cydectin; Virbac), monepantel + abamectin (Zolvix Plus; Elanco) and compound MIPS-0018666 (abbreviated here as M-666) ([Le et al., 2018]) as positive controls (20 µM). Following the dilution and dispensing of compounds into plates, 80 H. contortus xL3s in 20 μl of LB* were transferred to individual wells; after this step, the final concentrations were 20 µM of test- or positive-control compound, and 0.2% of DMSO. During dispensing, xL3s were maintained in a homogenous suspension using a constant stream of bubbles produced employing an aquarium pump (H2Pro). Plates containing H. contortus xL3s were incubated at 38 °C, 10% (v/v) CO2 and >90% relative humidity.
After 90 h of incubation with compounds (20 μM), H. contortus xL3s motility was measured for 15 min in individual wells of each plate by infrared light beam-interference ([Simonetta and Golombek, 2007]) using a WMicroTracker ONE instrument (Phylumtech). Raw data captured were normalised against measurements obtained for the positive (monepantel) and negative (LB* + 0.2% DMSO) controls to remove plate-to-plate variation by calculating the percentage of motility using the program GraphPad Prism (v.9.1.2; GraphPad Software). A compound was considered active (“hit”) if it reduced larval motility by ≥ 70%. To continually assess the performance of the screening assay, the Z′-factor ([Zhang et al., 1999]) was calculated (using data for the DMSO and the M-666 controls) for individual plates (n = 43) and was consistently ≥0.7; reliable assays achieve a Z′-factor of between 0.5 and 1. The signal to background (S/B) ratio (for the same controls) ([Sui and Wu, 2007]) was consistently >200.

Experiment [2] has as its system H. contortus xL3 to L4 development. Briefly: High throughput screen, larval development and phenotype at 168 h. As to conditions: for Abnormal phenotype detected at 168 h: 20 µM; for inhibition at 20 µM: Haemonchus contortus, development to L4. The experiment is classed as cell-based, Haemonchus contortus. The method, then: Following the measurement of xL3 motility, plates were incubated again for 78 h (i.e., a total of 168 h) under the same conditions. Thereafter, 40 µl of 1% (v/v) iodine were added to individual wells, and worms examined using a light microscope (M80, Leica) at 60-times magnification to assess larval development, based on the presence/absence of a well-developed pharynx ([Sommerville, 1966]), and/or phenotypic alterations with respect to untreated xL3s.

For `CC(=NOc1nc(-c2ccccc2)ns1)c1cccs1` [MBHF-hit3, 1-(2-thienyl)-1-ethanone O-(3-phenyl-1,2,4-thiadiazol-5-yl)oxime], the inhibition at 20 µM in experiment [1] was determined as 96.4%. In addition, in experiment [2], the “Abnormal phenotype detected at 168 h” value was “Cur, Evi” and the inhibition at 20 µM is < 80%.

On to `C(#Cc1ccc(-c2ccn[nH]2)cc1)c1ccccc1` [MBHF-hit6, 5-[4-(2-phenyleth-1-ynyl)phenyl]-1H-pyrazole], for which the inhibition at 20 µM in experiment [1] is 94%; in experiment [2], 100%. Moreover, the “Abnormal phenotype detected at 168 h” value in experiment [2] is reported as “Cur, Evi”.

As for `CCCCOc1ccc(-c2ccc(C#N)cc2)cc1` [MBHF-hit4, 4'-butoxy[1,1'-biphenyl]-4-carbonitrile], in experiment [1], the inhibition at 20 µM came to 95.6%. In experiment [2], the “Abnormal phenotype detected at 168 h” value is “Cur, Evi” and the inhibition at 20 µM came out at 100%.

Regarding `CC(=O)c1ccc(NC(=O)CSc2nnc(-c3ccco3)n2C)cc1` [MBHF-hit28, N-(4-acetylphenyl)-2-{[5-(2-furyl)-4-methyl-4H-1,2,4-triazol-3-yl]sulfanyl}acetamide], the inhibition at 20 µM is 72.7% in experiment [1] and < 80% in experiment [2].

As to `CSc1c(-c2ccc(Cl)cc2)[nH]c2ccccc12` [MBHF-hit7, 2-(4-chlorophenyl)-3-(methylthio)-1H-indole], in experiment [1], the inhibition at 20 µM worked out at 91.9%. For the same compound, in experiment [2], the “Abnormal phenotype detected at 168 h” value was “Cur, Evi” and the inhibition at 20 µM came out at 100%.

`COc1c(C(=O)NCc2ccc(Cl)cc2)csc1Cl` [MBHF-hit27, 5-chloro-N-(4-chlorobenzyl)-4-methoxy-3-thiophenecarboxamide]: the inhibition at 20 µM in experiment [1] stood at 73.4%. In experiment [2], the “Abnormal phenotype detected at 168 h” value was “Cur, Evi” and the inhibition at 20 µM is < 80%.

In the case of `N#CC(C#N)=NNc1ccc(C(F)(F)F)cc1` [MBHF-hit1, 2-{2-[4-(trifluoromethyl)phenyl]hydrazono}malononitrile], the inhibition at 20 µM in experiment [1] turned out to be 102%; in experiment [2], 100%.

For the compound `Nc1ccccc1C(=O)N1CCN(c2ccc([N+](=O)[O-])cn2)CC1` [MBHF-hit11, (2-aminophenyl)[4-(5-nitro-2-pyridyl)piperazino]methanone], the inhibition at 20 µM in experiment [1] is 82.7%; in experiment [2] it was < 80%.

With `CC(C)c1cc(Br)c(NC(=O)NCc2ccco2)c(Br)c1` [MBHF-hit23, N-(2,6-dibromo-4-isopropylphenyl)-N'-(2-furylmethyl)urea], the inhibition at 20 µM in experiment [1] is 74.8%; in experiment [2] it was < 80%.

As for `CSC(=NS(=O)(=O)c1ccc(C)cc1)N(C)C` [MBHF-hit34, N1-[(dimethylamino)(methylthio)methylidene]-4-methylbenzene-1-sulfonamide], the inhibition at 20 µM in experiment [1] is 70.3%; in experiment [2], < 80%.

`CC1=CSC(=C(C#N)C(=O)c2ccccc2Cl)N1c1ccccc1Cl` [MBHF-hit13, 3-(2-chlorophenyl)-2-[3-(2-chlorophenyl)-4-methyl-1,3-thiazol-2(3H)-ylidene]-3-oxopropanenitrile]: the inhibition at 20 µM in experiment [1] was 78.8%; in experiment [2], < 80%.

With `N#Cc1c(Cl)c(Cl)c(Cl)c(Cl)c1C#N` [MBHF-hit8, 3,4,5,6-tetrachlorophthalonitrile], the inhibition at 20 µM in experiment [1] is 91%; in experiment [2], < 80%.

In the case of `OC(CNCCNc1nccc(C(F)(F)F)n1)c1ccccc1` (centres unmarked) [MBHF-hit35, 1-phenyl-2-[(2-{[4-(trifluoromethyl)pyrimidin-2-yl]amino}ethyl)amino]ethan-1-ol], the inhibition at 20 µM in experiment [1] was 70.2%; in experiment [2] it was < 80%.

In the case of `O=[N+]([O-])c1ccc2c(c1)CCN2S(=O)(=O)c1ccccc1` [MBHF-hit31, 5-nitro-1-(phenylsulfonyl)indoline], the inhibition at 20 µM is 71.5% in experiment [1] and < 80% in experiment [2].

Take `O=C(Nc1ccc(F)cc1)Nc1cnn(-c2ccc([N+](=O)[O-])cc2)c1C(F)(F)F` [MBHF-hit12, N-(4-fluorophenyl)-N'-[1-(4-nitrophenyl)-5-(trifluoromethyl)-1H-pyrazol-4-yl]urea]: the inhibition at 20 µM in experiment [1] turned out to be 82.3%. Moreover, in experiment [2], the “Abnormal phenotype detected at 168 h” value is reported as “Cur, Evi” and the inhibition at 20 µM lay within 80 to 99%.

As for `CCOC(=O)c1ccc(Oc2ccc(Cl)cc2Cl)c([N+](=O)[O-])c1` [MBHF-hit36, ethyl 4-(2,4-dichlorophenoxy)-3-nitrobenzoate], the inhibition at 20 µM is 70.2% in experiment [1] and < 80% in experiment [2].

Turning to `N#CC(=NNc1ccc(Cl)cc1Cl)C(=O)c1ccc(Cl)cc1` [MBHF-hit5, 3-(4-chlorophenyl)-2-[2-(2,4-dichlorophenyl)hydrazono]-3-oxopropanenitrile], the inhibition at 20 µM stood at 95.2% in experiment [1] and 100% in experiment [2].

For `COc1ccc(SCc2nsc(Sc3ccc(OC)cc3)n2)cc1` [MBHF-hit16, 5-[(4-methoxyphenyl)thio]-3-{[(4-methoxyphenyl)thio]methyl}-1,2,4-thiadiazole], the inhibition at 20 µM was 78.5% in experiment [1] and 80 to 99% in experiment [2]. The “Abnormal phenotype detected at 168 h” value in experiment [2] is on record as “Cur, Evi”.

As for `Cc1nc2c(cnn2-c2ccccc2)c(=O)o1` [MBHF-hit24, 6-methyl-1-phenylpyrazolo[3,4-d][1,3]oxazin-4(1H)-one], the inhibition at 20 µM is 74.6% in experiment [1] and < 80% in experiment [2].

With `CC12NC(=O)NC1(C)NC(=O)N2` (centres unmarked) [MBHF-hit22, 3a,6a-dimethylperhydroimidazo[4,5-d]imidazole-2,5-dione], the figures for the inhibition at 20 µM in experiment [1] and in experiment [2] were 76.3% and < 80%, respectively.

Take `N#CC(=NNc1cccc(C(F)(F)F)c1)C(=O)c1csc(-c2cccnc2)n1` [MBHF-hit18, 3-oxo-3-[2-(3-pyridyl)-1,3-thiazol-4-yl]-2-{2-[3-(trifluoromethyl)phenyl]hydrazono}propanenitrile]: the inhibition at 20 µM in experiment [1] is 77.1%; in experiment [2], < 80%.

As for `O=C1c2ccccc2C(=O)N1CCSCc1cccc(C(F)(F)F)c1` [MBHF-hit21, 2-(2-{[3-(trifluoromethyl)benzyl]thio}ethyl)-1H-isoindole-1,3(2H)-dione], the inhibition at 20 µM in experiment [1] was found to be 76.5%; in experiment [2] it was 100%. In addition, the “Abnormal phenotype detected at 168 h” value in experiment [2] was “Cur, Evi”.

`C(#Cc1ccc(-c2cc[nH]n2)s1)c1ccccc1` [MBHF-hit2, 3-[5-(2-phenyleth-1-ynyl)-2-thienyl]-1H-pyrazole]: the inhibition at 20 µM stood at 98.4% in experiment [1] and 100% in experiment [2]. For the same compound, the “Abnormal phenotype detected at 168 h” value in experiment [2] is on record as “Cur, Evi”.

For `Cc1ccc2oc(=O)n(CCC(N)=NOC(=O)c3ccccc3)c2c1` [MBHF-hit14, N'-(benzoyloxy)-3-[5-methyl-2-oxo-1,3-benzoxazol-3(2H)-yl]propanimidamide], the values for the inhibition at 20 µM in experiment [1] and in experiment [2] were 81.6% and < 80%, respectively.

For `CCCCCc1cnc(-c2ccc(C#N)cc2)nc1` [MBHF-hit25, 4-(5-pentylpyrimidin-2-yl)benzonitrile], the inhibition at 20 µM in experiment [1] came out at 74.5%; in experiment [2], 100%. Further, the “Abnormal phenotype detected at 168 h” value in experiment [2] is “Cur, Evi”.

As for `O=S1(=O)CC=C(Cl)C1` [MBHF-hit30, 3-chloro-2,5-dihydro-1H-1lambda~6~-thiophene-1,1-dione], the figures for the inhibition at 20 µM in experiment [1] and in experiment [2] were 71.5% and < 80%, respectively.
